From ChEMBL document CHEMBL4387740, “Discovery of ABT-957: 1-Benzyl-5-oxopyrrolidine-2-carboxamides as selective calpain inhibitors with enhanced metabolic stability” (Bioorg Med Chem Lett, 2019)

Assays:
[1] = biological target: T1, Calpain-1 catalytic subunit (Homo sapiens, UniProt P07384); assay: Inhibition of Cal1 (unknown origin)
T1 sequence (P07384 whole entry): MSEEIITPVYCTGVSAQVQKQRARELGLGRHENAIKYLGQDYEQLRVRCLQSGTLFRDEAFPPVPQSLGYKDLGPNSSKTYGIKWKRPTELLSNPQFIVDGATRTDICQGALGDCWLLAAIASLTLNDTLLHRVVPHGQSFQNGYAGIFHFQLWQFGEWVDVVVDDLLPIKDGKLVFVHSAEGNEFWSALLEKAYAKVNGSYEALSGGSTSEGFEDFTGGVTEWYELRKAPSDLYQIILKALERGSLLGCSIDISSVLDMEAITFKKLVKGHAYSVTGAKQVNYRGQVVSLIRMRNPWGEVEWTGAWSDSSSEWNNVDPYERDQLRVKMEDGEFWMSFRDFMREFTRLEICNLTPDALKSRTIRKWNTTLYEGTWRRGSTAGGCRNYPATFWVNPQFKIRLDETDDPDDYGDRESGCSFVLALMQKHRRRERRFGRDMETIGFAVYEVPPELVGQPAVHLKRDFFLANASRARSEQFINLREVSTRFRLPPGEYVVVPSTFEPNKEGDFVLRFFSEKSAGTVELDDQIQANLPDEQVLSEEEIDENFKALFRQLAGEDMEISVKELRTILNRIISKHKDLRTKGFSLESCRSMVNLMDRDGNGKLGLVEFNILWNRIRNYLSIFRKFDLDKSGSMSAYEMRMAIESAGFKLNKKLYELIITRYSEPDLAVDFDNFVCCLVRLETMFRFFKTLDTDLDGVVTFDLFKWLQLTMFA

Homo sapiens [2] = organism: Homo sapiens; assay: Selectivity ratio, ratio of Ki for CatB (unknown origin) to Ki for Cal1 (unknown origin)
Homo sapiens [3] = organism: Homo sapiens; assay: Selectivity ratio, ratio of Ki for CatK (unknown origin) to Ki for Cal1 (unknown origin)
Homo sapiens [4] = organism: Homo sapiens; assay: Selectivity ratio, ratio of Ki for CatL (unknown origin) to Ki for Cal1 (unknown origin)
[5] = Selectivity ratio, ratio of Ki for CatS (unknown origin) to Ki for Cal1 (unknown origin); conditions: Homo sapiens
[6] = Intrinsic clearance in human liver cytosol; assay type: ADME, subcellular; conditions: read-out: CLH
[7] = Intrinsic clearance in human liver microsomes; assay type: ADME, Microsome; conditions: read-out: CLH
[8] = Intrinsic clearance in rat liver microsomes; conditions: read-out: CLH
[9] = Intrinsic clearance in rat liver microsomes; assay type: ADME, Microsome; conditions: read-out: CLH

Ki [1] | Selectivity ratio (Homo sapiens [2]) | Selectivity ratio (Homo sapiens [3]) | Selectivity ratio (Homo sapiens [4]) | Selectivity ratio [5] | microsomal CLint [6] | microsomal CLint [7] | microsomal CLint [8] | microsomal CLint [9] | Compound
73 nM | 18 | 93 | 57 | > 130 | > 70 µL/min/mg | < 1 µL/min/mg | > 100 µL/min/mg | – | O=C(NC1CC1)C(=O)C(Cc1ccccc1)NC(=O)[C@H]1CCC(=O)N1Cc1ccccc1Cl (some centres not stated)
125 nM | 7 | 61 | 4 | 76 | – | – | – | – | NC(=O)C(=O)C(Cc1ccccc1)NC(=O)[C@H]1CCC(=O)N1Cc1cccc(OC(F)(F)F)c1 (mixture of isomers)
101 nM | 72 | 4 | 3 | 2 | – | – | – | – | CN1C[C@H](C(=O)NC(Cc2ccccc2)C(=O)C(N)=O)N(Cc2ccccc2)C1=O (mixture of isomers)
528 nM | 5 | 17 | 6 | 2 | – | – | – | – | NC(=O)C(=O)C(Cc1ccccc1)NC(=O)[C@@H]1CCC(=O)N1Cc1ccccc1 (mixture of isomers)
268 nM | 56 | 2 | 12 | 7 | – | – | – | – | NC(=O)C(=O)C(Cc1ccccc1)NC(=O)C1CCS(=O)(=O)N1Cc1ccccc1 (mixture of isomers)
165 nM | 55 | 85 | 44 | 60 | 4 µL/min/mg | < 23 µL/min/mg | – | < 23 µL/min/mg | CCNC(=O)C(=O)C(Cc1ccccc1)NC(=O)[C@H]1CCC(=O)N1Cc1ccccc1 (mixture of isomers)
46 nM | 4 | 6 | 21 | 41 | – | – | – | – | CCCCC(NC(=O)[C@H]1CCC(=O)N1Cc1ccccc1)C(=O)C(N)=O (mixture of isomers)
82 nM | 15 | 2 | 4 | 13 | – | – | – | – | NC(=O)C(=O)C(Cc1ccccc1)NC(=O)c1cccc(=O)n1Cc1ccccc1 (configuration not stated)
48 nM | 104 | 70 | 34 | 286 | 3 µL/min/mg | > 70 µL/min/mg | – | > 100 µL/min/mg | O=C(NCc1ccc(F)cc1)C(=O)C(Cc1ccccc1)NC(=O)[C@H]1CCC(=O)N1Cc1ccccc1 (some centres not stated)
70 nM | 296 | 88 | 37 | > 400 | 5 µL/min/mg | > 70 µL/min/mg | – | > 100 µL/min/mg | O=C(Nc1ccccc1)C(=O)C(Cc1ccccc1)NC(=O)[C@H]1CCC(=O)N1Cc1ccccc1 (some centres not stated)
9700 nM | – | – | – | – | < 23 µL/min/mg | < 1 µL/min/mg | < 23 µL/min/mg | – | O=C1CC[C@H](C(=O)NC(Cc2ccccc2)C(=O)C(=O)NC2CC2)N1 (some centres not stated)
26 nM | 15 | 84 | 11 | 85 | – | – | – | – | NC(=O)C(=O)C(Cc1ccccc1)NC(=O)[C@H]1CCC(=O)N1Cc1cccc(C(F)(F)F)c1 (mixture of isomers)
– | 10 | 18 | 127 | > 300 | – | – | – | – | NC(=O)C(=O)C(Cc1ccccc1)NC(=O)c1cccnc1-n1ccc(-c2ccc(F)cc2)n1 (configuration not stated)
1350 nM | 23 | 7 | 7 | 7 | – | – | – | – | CC(C)(C)CN1C(=O)CC[C@@H]1C(=O)NC(Cc1ccccc1)C(=O)C(N)=O (mixture of isomers)
110 nM | 66 | 27 | 20 | 130 | 1 µL/min/mg | 37 µL/min/mg | – | > 100 µL/min/mg | O=C(NC1CCC1)C(=O)C(Cc1ccccc1)NC(=O)[C@H]1CCC(=O)N1Cc1ccccc1 (some centres not stated)
180 nM | 16 | 13 | 9 | 35 | – | – | – | – | NC(=O)C(=O)C(Cc1ccccc1)NC(=O)[C@H]1CCC(=O)N1Cc1ccncc1 (mixture of isomers)
> 1350 nM | 28 | 6 | 7 | 11 | – | – | – | – | NC(=O)C(=O)C(Cc1ccccc1)NC(=O)[C@H]1CCC(=O)N1c1ccccc1 (mixture of isomers)
59 nM | 17 | 102 | 65 | 524 | – | – | – | – | NC(=O)C(=O)C(Cc1ccccc1)NC(=O)[C@H]1CCC(=O)N1Cc1ccccc1C(F)(F)F (mixture of isomers)
36 nM | 51 | 120 | 387 | 395 | – | – | – | – | COc1cccc(C(F)(F)F)c1CN1C(=O)CC[C@@H]1C(=O)NC(Cc1ccccc1)C(=O)C(N)=O (mixture of isomers)
57 nM | 5 | 33 | 41 | 127 | – | – | – | – | NC(=O)C(=O)C(Cc1ccccc1)NC(=O)[C@H]1CCC(=O)N1Cc1ccccc1OC(F)(F)F (mixture of isomers)
200 nM | 8 | < 1 | 2 | 5 | – | – | – | – | NC(=O)C(=O)C(Cc1ccccc1)NC(=O)[C@H]1CCC(=O)N1CC1CCCCC1 (mixture of isomers)
545 nM | – | – | – | – | 42 µL/min/mg | 2 µL/min/mg | 58 µL/min/mg | – | O=C(NC1CC1)C(=O)C(Cc1ccccc1)NC(=O)[C@H]1CCC(=O)N1C1Cc2ccccc2C1 (some centres not stated)
50 nM | 22 | > 200 | 17 | > 200 | > 70 µL/min/mg | < 1 µL/min/mg | > 100 µL/min/mg | – | O=C(NC1CC1)C(=O)C(Cc1ccccc1)NC(=O)[C@H]1CCC(=O)N1Cc1ccccc1OC(F)(F)F (some centres not stated)
64 nM | 14 | 4 | 21 | 56 | – | – | – | – | NC(=O)C(=O)C(Cc1ccccc1)NC(=O)[C@H]1CCCC(=O)N1Cc1ccccc1 (mixture of isomers)
50 nM | 23 | 1 | 13 | 3 | – | – | – | – | C[C@H]1C[C@H](C(=O)NC(Cc2ccccc2)C(=O)C(N)=O)N(Cc2ccccc2)C1=O (mixture of isomers)
129 nM | 72 | 14 | 4 | 14 | – | – | – | – | Cc1ccc(S(=O)(=O)N2CCC[C@@H]2C(=O)NC(Cc2ccccc2)C(=O)C(N)=O)cc1 (mixture of isomers)
4360 nM | – | – | – | – | – | – | – | – | CONC(=O)C(=O)C(Cc1ccccc1)NC(=O)[C@H]1CCC(=O)N1Cc1ccccc1 (some centres not stated)
90 nM | 33 | 109 | 162 | > 100 | > 70 µL/min/mg | > 1 µL/min/mg | > 100 µL/min/mg | – | O=C(NC1CC1)C(=O)C(Cc1ccccc1)NC(=O)[C@H]1CCC(=O)N1Cc1ccccc1C(F)(F)F (some centres not stated)

Compound | Ki [1] | Selectivity ratio (Homo sapiens [2]) | Selectivity ratio (Homo sapiens [3]) | Selectivity ratio (Homo sapiens [4]) | Selectivity ratio [5] | microsomal CLint [6] | microsomal CLint [7] | microsomal CLint [8] | microsomal CLint [9]
Cn1cc(CN2C(=O)CC[C@@H]2C(=O)NC(Cc2ccccc2)C(=O)C(=O)NC2CN2)cn1 (some centres not stated) | 530 nM | – | – | – | – | 27 µL/min/mg | – | 39 µL/min/mg | –
